Among the data in patent publication US12319672B2, “Alpha-D-galactopyranoside derivatives” (Idorsia Pharmaceuticals Ltd, priority 2019, dated 2025) are IC50 values, retold here.

The target of one assay is human Gal-3 (hGal-3) (Homo sapiens (Human), UniProt P17931). As to the kind of experiment: Competitive binding assay: binding of biotinylated hGal-3 to microplate-adsorbed asialofetuin (ASF). Conditions: Activity on hGal-3; mean values of several measurements. The procedure, abridged: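 Biotin-hGal-3/hGal-1 300-1000 ng/mL + cpd (DMSO dilutions) on ASF-coated plate, 3 h 4° C; wash; SA-HRP 80 ng/mL 1 h 4° C; wash; ABTS. IC50 = mean of several runs. hGal-1 preferably Cys→Ser (all six) mutant.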

Another assay has as its target human Gal-1 (hGal-1). As to the kind of experiment: Competitive binding assay: binding of biotinylated hGal-1 to microplate-adsorbed asialofetuin (ASF). Conditions: Activities on hGal-1; mean values of several measurements. In outline: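 Compounds diluted in DMSO competed with biotinylated hGal-3 or hGal-1 (300-1000 ng/mL) for binding to plate-adsorbed asialofetuin for 3 h at 4° C. Bound galectin was detected with streptavidin-peroxidase (80 ng/mL, 1 h, 4° C) and ABTS substrate; IC50 reported as mean of several measurements.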

human Gal-1 (hGal-1), sequence (P09382 2-135 limits assumed): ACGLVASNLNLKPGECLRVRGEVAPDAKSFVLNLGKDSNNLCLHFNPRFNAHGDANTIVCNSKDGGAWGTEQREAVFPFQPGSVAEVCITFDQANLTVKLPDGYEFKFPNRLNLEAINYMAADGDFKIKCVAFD
human Gal-3 (hGal-3), sequence (P17931 whole entry): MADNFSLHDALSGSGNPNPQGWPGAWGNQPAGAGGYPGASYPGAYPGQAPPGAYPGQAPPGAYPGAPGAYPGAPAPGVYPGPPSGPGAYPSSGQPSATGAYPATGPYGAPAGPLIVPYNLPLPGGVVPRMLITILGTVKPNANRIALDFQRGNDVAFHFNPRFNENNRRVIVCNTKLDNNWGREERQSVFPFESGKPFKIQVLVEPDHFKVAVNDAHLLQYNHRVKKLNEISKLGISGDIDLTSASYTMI

For orientation: IC50 means the point on the concentration scale where inhibition reaches its midpoint. Lower therefore signals greater potency in that assay. In the case of `CO[C@@H]1[C@@H](n2cc(-c3cc(F)c(F)c(F)c3)nn2)[C@@H](O)[C@@H](CO)O[C@@H]1Cc1cn(C2CCN(S(C)(=O)=O)CC2)nn1` [Example 4.07, (2R,3R,4S,5R,6R)-2-(hydroxymethyl)-5-methoxy-6-((1-(1-(methylsulfonyl)piperidin-4-yl)-1H-1,2,3-triazol-4-yl)methyl)-4-(4-(3,4,5-trifluorophenyl)-1H-1,2,3-triazol-1-yl)tetrahydro-2H-pyran-3-ol], the figures for the IC50 at human Gal-3 (hGal-3) and at human Gal-1 (hGal-1) were 12 nM and 100 nM, respectively.

`CO[C@@H]1[C@@H](n2cc(-c3cc(F)c(F)c(F)c3)nn2)[C@@H](O)[C@@H](CO)O[C@@H]1Cc1cn(C2CCN(C(=O)NC(C)(C)C)CC2)nn1` [Example 4.08, N-(tert-butyl)-4-(4-(((2R,3R,4S,5R,6R)-5-hydroxy-6-(hydroxymethyl)-3-methoxy-4-(4-(3,4,5-trifluorophenyl)-1H-1,2,3-triazol-1-yl)tetrahydro-2H-pyran-2-yl)methyl)-1H-1,2,3-triazol-1-yl)piperidine-1-carboxamide]: the IC50 at human Gal-3 (hGal-3) stood at 10 nM; on human Gal-1 (hGal-1), 67 nM.

Turning to `CCCS(=O)(=O)N1CCC(n2cc(C[C@H]3O[C@H](CO)[C@H](O)[C@H](n4cc(-c5cc(F)c(F)c(F)c5)nn4)[C@H]3OC)nn2)CC1` [Example 4.09, (2R,3R,4S,5R,6R)-2-(hydroxymethyl)-5-methoxy-6-((1-(1-(propylsulfonyl)piperidin-4-yl)-1H-1,2,3-triazol-4-yl)methyl)-4-(4-(3,4,5-trifluorophenyl)-1H-1,2,3-triazol-1-yl)tetrahydro-2H-pyran-3-ol], the IC50 came out at 13 nM on human Gal-3 (hGal-3) and 100 nM at human Gal-1 (hGal-1).

Regarding `CO[C@@H]1[C@@H](n2cc(-c3cc(F)c(F)c(F)c3)nn2)[C@@H](O)[C@@H](CO)O[C@@H]1Cc1cn(C2CCN(S(=O)(=O)C(C)C)CC2)nn1` [Example 4.10, (2R,3R,4S,5R,6R)-2-(hydroxymethyl)-6-((1-(1-(isopropylsulfonyl)piperidin-4-yl)-1H-1,2,3-triazol-4-yl)methyl)-5-methoxy-4-(4-(3,4,5-trifluorophenyl)-1H-1,2,3-triazol-1-yl)tetrahydro-2H-pyran-3-ol], the IC50 turned out to be 25 nM on human Gal-3 (hGal-3) and 270 nM at human Gal-1 (hGal-1).

For `CO[C@@H]1[C@@H](n2cc(-c3cc(F)c(F)c(F)c3)nn2)[C@@H](O)[C@@H](CO)O[C@H]1Cc1cn(C2CCN(C(=O)OC(C)(C)C)CC2)nn1` [Example 4.11, tert-butyl 4-(4-(((2S,3R,4S,5R,6R)-5-hydroxy-6-(hydroxymethyl)-3-methoxy-4-(4-(3,4,5-trifluorophenyl)-1H-1,2,3-triazol-1-yl)tetrahydro-2H-pyran-2-yl)methyl)-1H-1,2,3-triazol-1-yl)piperidine-1-carboxylate], the figures for the IC50 at human Gal-3 (hGal-3) and at human Gal-1 (hGal-1) were 1200 nM and 3030 nM, respectively.

Regarding `CO[C@@H]1[C@@H](n2cc(-c3cc(F)c(F)c(F)c3)nn2)[C@@H](O)[C@@H](CO)O[C@H]1Cc1cn(C2CCN(C(C)=O)CC2)nn1` [Example 4.12, 1-(4-(4-(((2S,3R,4S,5R,6R)-5-hydroxy-6-(hydroxymethyl)-3-methoxy-4-(4-(3,4,5-trifluorophenyl)-1H-1,2,3-triazol-1-yl)tetrahydro-2H-pyran-2-yl)methyl)-1H-1,2,3-triazol-1-yl)piperidin-1-yl)ethan-1-one], the IC50 on human Gal-3 (hGal-3) worked out at 700 nM; on human Gal-1 (hGal-1) it was 3040 nM.

As for `CO[C@@H]1[C@@H](n2cc(-c3cc(F)c(F)c(F)c3)nn2)[C@@H](O)[C@@H](CO)O[C@@H]1Cc1cn(C2CCN(C(=O)OCc3ccccc3)CC2)nn1` [Example 4.13, benzyl 4-(4-(((2R,3R,4S,5R,6R)-5-hydroxy-6-(hydroxymethyl)-3-methoxy-4-(4-(3,4,5-trifluorophenyl)-1H-1,2,3-triazol-1-yl)tetrahydro-2H-pyran-2-yl)methyl)-1H-1,2,3-triazol-1-yl)piperidine-1-carboxylate], the concentration for half-maximal inhibition (IC50) at human Gal-3 (hGal-3) stood at 17 nM; at human Gal-1 (hGal-1), 340 nM.

As for `CO[C@@H]1[C@@H](n2cc(-c3cc(F)c(F)c(F)c3)nn2)[C@@H](O)[C@@H](CO)O[C@@H]1Cc1cn(C2CCSCC2)nn1` [Example 4.14, (2R,3R,4S,5R,6R)-2-(hydroxymethyl)-5-methoxy-6-((1-(tetrahydro-2H-thiopyran-4-yl)-1H-1,2,3-triazol-4-yl)methyl)-4-(4-(3,4,5-trifluorophenyl)-1H-1,2,3-triazol-1-yl)tetrahydro-2H-pyran-3-ol], the IC50 was 36 nM on human Gal-3 (hGal-3) and 3880 nM at human Gal-1 (hGal-1).

Consider `CO[C@@H]1[C@@H](n2cc(-c3cc(F)c(F)c(F)c3)nn2)[C@@H](O)[C@@H](CO)O[C@@H]1Cc1cn(C2CC[S+]([O-])CC2)nn1` (stereo partly drawn) [Example 4.15, 4-(4-(((2R,3R,4S,5R,6R)-5-hydroxy-6-(hydroxymethyl)-3-methoxy-4-(4-(3,4,5-trifluorophenyl)-1H-1,2,3-triazol-1-yl)tetrahydro-2H-pyran-2-yl)methyl)-1H-1,2,3-triazol-1-yl)tetrahydro-2H-thiopyran 1-oxide], for which the IC50 came to 210 nM at human Gal-3 (hGal-3) and 4900 nM on human Gal-1 (hGal-1).

Consider `CO[C@@H]1[C@@H](n2cc(-c3cc(F)c(F)c(F)c3)nn2)[C@@H](O)[C@@H](CO)O[C@@H]1Cc1cn(C2CCS(=O)(=O)CC2)nn1` [Example 4.16, 4-(4-(((2R,3R,4S,5R,6R)-5-hydroxy-6-(hydroxymethyl)-3-methoxy-4-(4-(3,4,5-trifluorophenyl)-1H-1,2,3-triazol-1-yl)tetrahydro-2H-pyran-2-yl)methyl)-1H-1,2,3-triazol-1-yl)tetrahydro-2H-thiopyran 1,1-dioxide], for which the IC50 at human Gal-3 (hGal-3) stood at 35 nM; at human Gal-1 (hGal-1), 670 nM.

`CO[C@@H]1[C@@H](n2cc(-c3cc(F)c(F)c(F)c3)nn2)[C@@H](O)[C@@H](CO)O[C@@H]1Cc1cn(C2CCS(=N)(=O)CC2)nn1` (stereo partly drawn) [Example 4.17, 4-(4-(((2R,3R,4S,5R,6R)-5-hydroxy-6-(hydroxymethyl)-3-methoxy-4-(4-(3,4,5-trifluorophenyl)-1H-1,2,3-triazol-1-yl)tetrahydro-2H-pyran-2-yl)methyl)-1H-1,2,3-triazol-1-yl)-1-iminohexahydro-1l6-thiopyran 1-oxide]: the half-inhibitory concentration (IC50) at human Gal-3 (hGal-3) is 25 nM; on human Gal-1 (hGal-1), 170 nM.

As for `CN=S1(=O)CCC(n2cc(C[C@H]3O[C@H](CO)[C@H](O)[C@H](n4cc(-c5cc(F)c(F)c(F)c5)nn4)[C@H]3OC)nn2)CC1` (stereo partly drawn) [Example 4.18, 4-(4-(((2R,3R,4S,5R,6R)-5-hydroxy-6-(hydroxymethyl)-3-methoxy-4-(4-(3,4,5-trifluorophenyl)-1H-1,2,3-triazol-1-yl)tetrahydro-2H-pyran-2-yl)methyl)-1H-1,2,3-triazol-1-yl)-1-(methylimino)hexahydro-1l6-thiopyran 1-oxide], the IC50 worked out at 57 nM on human Gal-3 (hGal-3) and 240 nM at human Gal-1 (hGal-1).

Consider `CO[C@@H]1[C@@H](n2cc(-c3cc(F)c(F)c(F)c3)nn2)[C@@H](O)[C@@H](CO)O[C@@H]1Cc1cn(C2CCN([S+]([O-])C(C)(C)C)CC2)nn1` (stereo partly drawn) [Example 4.19, (2R,3R,4S,5R,6R)-6-((1-(1-(RS-tert-butylsulfinyl)piperidin-4-yl)-1H-1,2,3-triazol-4-yl)methyl)-2-(hydroxymethyl)-5-methoxy-4-(4-(3,4,5-trifluorophenyl)-1H-1,2,3-triazol-1-yl)tetrahydro-2H-pyran-3-ol], for which the IC50 was 34 nM at human Gal-3 (hGal-3) and 1000 nM at human Gal-1 (hGal-1).

For `CO[C@@H]1[C@@H](n2cc(-c3cc(F)c(F)c(F)c3)nn2)[C@@H](O)[C@@H](CO)O[C@@H]1Cn1cc(C2CCN(C(=O)OCc3ccccc3)CC2)nn1` [Example 4.20, benzyl 4-(1-(((2R,3R,4S,5R,6R)-5-hydroxy-6-(hydroxymethyl)-3-methoxy-4-(4-(3,4,5-trifluorophenyl)-1H-1,2,3-triazol-1-yl)tetrahydro-2H-pyran-2-yl)methyl)-1H-1,2,3-triazol-4-yl)piperidine-1-carboxylate], the results for the IC50 on human Gal-3 (hGal-3) and on human Gal-1 (hGal-1) were 21 nM and 520 nM, respectively.

Turning to `CO[C@@H]1[C@@H](n2cc(-c3cc(F)c(F)c(F)c3)nn2)[C@@H](O)[C@@H](CO)O[C@@H]1Cc1cn(C2CCN(S(=N)(=O)C(C)(C)C)CC2)nn1` (stereo partly drawn) [Example 4.21, (2R,3R,4S,5R,6R)-2-(hydroxymethyl)-5-methoxy-6-((1-(1-(2-methylpropan-2-ylsulfonimidoyl)piperidin-4-yl)-1H-1,2,3-triazol-4-yl)methyl)-4-(4-(3,4,5-trifluorophenyl)-1H-1,2,3-triazol-1-yl)tetrahydro-2H-pyran-3-ol], the IC50 on human Gal-3 (hGal-3) was found to be 19 nM; on human Gal-1 (hGal-1), 86 nM.

For the compound `CO[C@@H]1[C@@H](n2cc(-c3cc(F)c(F)c(F)c3)nn2)[C@@H](O)[C@@H](CO)O[C@@H]1Cn1cc(C2CCN(S(=O)(=O)C(C)C)CC2)nn1` [Example 4.22, (2R,3R,4S,5R,6R)-2-(hydroxymethyl)-6-((4-(1-(isopropylsulfonyl)piperidin-4-yl)-1H-1,2,3-triazol-1-yl)methyl)-5-methoxy-4-(4-(3,4,5-trifluorophenyl)-1H-1,2,3-triazol-1-yl)tetrahydro-2H-pyran-3-ol], the IC50 on human Gal-3 (hGal-3) was determined as 45 nM; at human Gal-1 (hGal-1), 770 nM.

Consider `CO[C@@H]1[C@@H](n2cc(-c3cc(F)c(F)c(F)c3)nn2)[C@@H](O)[C@@H](CO)O[C@@H]1Cn1cc(C2CCN(S(=O)(=O)c3ccc(C)cc3)CC2)nn1` [Example 4.23, (2R,3R,4S,5R,6R)-2-(hydroxymethyl)-5-methoxy-6-((4-(1-tosylpiperidin-4-yl)-1H-1,2,3-triazol-1-yl)methyl)-4-(4-(3,4,5-trifluorophenyl)-1H-1,2,3-triazol-1-yl)tetrahydro-2H-pyran-3-ol], for which the IC50 was 38 nM at human Gal-3 (hGal-3) and 1230 nM at human Gal-1 (hGal-1).
